In patent publication US20240216311A1, “FULLY-DILUTABLE, SELF-MICROEMULSIFYING DELIVERY SYSTEMS (SMEDDS) FOR POORLY WATER-SOLUBLE POLAR SOLUTES” (THE GOVERNING COUNCIL OF THE UNIVERSITY OF TORONTO, priority 2020, published 2024):
Read-outs that look alike come from different tables or passages of the source.

Columns and labels:
[1] = Characteristic curvature (Cc) by salinity phase scans with reference surfactant C9E5; type: physicochemical; conditions: for Cc (characteristic curvature): methodology of Example 1, C9E5 as reference surfactant; for dS*/dx: polar oil in mixtures with C9E5, heptane (cyclohexane for CBD) as oil
Protocol: The characteristic curvature (Cc) of the candidate hydrophilic linker with extremely negative Cc (Cc<−5) was determined following the mixed reference and test surfactant method used by Zarate et al.. […] The salinity phase scans were conducted by vortex-mixing 2 mL of the aqueous surfactant solution, containing a set value of sodium chloride (g NaCl/100 mL of aqueous surfactant solution or % w/v NaCl) with 2 mL of n-heptane at room temperature in 2-dram vials sealed with a silicone-lined cap. […] The difference between the initial volume added to the vial (2 mL), and the excess phase volume was considered the volume solubilized. The ratio between the volume solubilized (in mL) and the total mass of surfactant mixture (0.2 g) was reported as the solubilization parameter (SP) for the given phase at the set salinity.

[2] = cited from earlier work; for Polar area: from ChemSpider; for Dipole moment: from Tantishaiyakul et al. [33]
[3] = literature value, cited from earlier work
[4] = adapted from [21]; cited from earlier work
[5] = from Drugbank, nonylphenol from ChemSpider

## CC(C)Cc1ccc(C(C)C(=O)O)cc1 (racemic) [Ibuprofen]
[1]
  Cc (characteristic curvature): +4.9
[2]
  Polar area: 37 Å^2
  Dipole moment: 1.9 Debye
[2]; [5]
  Number of H-acceptors: 2
  Number of H-donors: 1

## CCOC(=O)c1ccc(N)cc1 [Benzocaine]
[1]
  Cc (characteristic curvature): +1.6
  dS*/dx: −27 % w/v NaCl

## C=C(C)[C@@H]1CCC(C)=C[C@H]1c1c(O)cc(CCCCC)cc1O [Cannabidiol (CBD), Cannabidiol]
[1]
  Cc (characteristic curvature): +2.6
  dS*/dx: −38 % w/v NaCl
[2]
  Polar area: 40 Å^2
  Dipole moment: 1.9 Debye
[2]; [5]
  Aqueous solubility: 0.0013 wt %
  Number of H-acceptors: 2
  Number of H-donors: 2
  pKa: Neutral

## C=CCc1ccc(O)c(OC)c1 [Eugenol]
[1]
  Cc (characteristic curvature): +2.8
  dS*/dx: −37 % w/v NaCl
[2]
  Polar area: 29 Å^2
  Dipole moment: 2.8 Debye
[2]; [5]
  Number of H-acceptors: 2
  Number of H-donors: 1
  pKa: Neutral

## CCCCCCCC/C=C\CCCCCCCC(=O)OCC(O)CO (centres unmarked) [Glycerol monooleate]
[3]
  Cc (characteristic curvature): +6.6 ± 1.5
[3]; listed as Peceol™
  Cc (characteristic curvature): +6.6

## CCCCCCCC/C=C\CCCCCCCC(=O)O [Oleic acid]
[3]
  Cc (characteristic curvature): 0 ± 0.1

## CCCCCCCC(=O)[O-].[Na+] [Sodium octanoate]
[3]
  Cc (characteristic curvature): −2.1 ± 0.1
[4]
  L: 12 Å
  vs/as: 4.6 Å

## CCCCCCCC/C=C\CCCCCCCC(=O)[O-].[Na+] [Sodium oleate]
[3]
  Cc (characteristic curvature): −1.7 ± 0.1
[4]
  L: 30 Å
  vs/as: 8.4 Å

## CCCCCCCC/C=C\CCCCCCCC(=O)OCCOCC(OCCO)C1OCC(OCCO)C1OCCO (centres unmarked) [Tween 80]
[3]
  Cc (characteristic curvature): −3.0 ± 0.7
[4]
  L: 34 Å
  vs/as: 25.8 Å

## Disodium stearoyl capryl glutamate
[3]
  Cc (characteristic curvature): −5 ± 0.2
[4]
  vs/as: 7.9 Å

## Nonylphenol
[1]
  Cc (characteristic curvature): +7.2
[2]
  Polar area: 20 Å^2
  Dipole moment: 1.6 Debye
[2]; [5]
  Number of H-acceptors: 2
  Number of H-donors: 1
  pKa: Neutral
[2]; octanol-water, from Drugbank, nonylphenol from ChemSpider
  logP: 5.8

## Sorbitan monolaurate [Sorbitan monolaurate, Span 20]
[3]
  Cc (characteristic curvature): +3.5 ± 0.8

## Sorbitan monooleate [Sorbitan monooleate (Span 80)]
[3]
  Cc (characteristic curvature): +5.0 ± 1^

## Sucrose distearate
[3]
  Cc (characteristic curvature): +4 ± 0.2

## Sucrose palmitate
[3]
  Cc (characteristic curvature): −0.8 ± 0.2
